Experimental findings from article PMC9019904, “AD Informer Set: Chemical tools to facilitate Alzheimer's disease drug discovery” (Alzheimer's & Dementia : Translational Research & Clinical …, 2022) are described below.

Data set [1] has as its system HMC3 (human microglia) cell line. As to the kind of experiment: pHrodo-myelin phagocytosis/cell viability high content imaging assay: viability (cell count, nuclear area, nuclear intensity). A digest of the protocol: (§1)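 Immortalized microglia are treated with compound (10 μM, single concentration) for 48 h, the final 20 h alongside pHrodo-myelin. Data are the mean of duplicates, reported as % of untreated control.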

Data set [2] shares this test system. The data set can be described thus: pHrodo-myelin phagocytosis/cell viability high content imaging assay: phagocytosis signal. The class given is cell-based. A digest of the protocol:
(§2)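 Read by high content imaging: the phagocytosis signal plus viability, measured simultaneously, with three extracted measurements. Imaging was done roughly 22 hours after pHrodo-myelin was added.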

Data set [3] can be described thus: Kinetic solubility in aqueous buffer pH 7.4 by total chemiluminescent nitrogen determination (Analiza). The settings on record: aqueous buffer, pH 7.4, aqueous buffer, kinetic from dmso stock.
The subject of data set [4] is BV2 (mouse microglia) cell line. As to the kind of experiment: pHrodo-myelin phagocytosis/cell viability high content imaging assay: phagocytosis signal. It counts as cell-based. The method, boiled down: as §2
The test system is the same in data set [5]. The data set can be described thus: pHrodo-myelin phagocytosis/cell viability high content imaging assay: viability (cell count, nuclear area, nuclear intensity). The method, boiled down:
as §1

Converted amounts (≈) assume the structure as drawn.

In general, kinetic solubility refers to the concentration staying in solution when a stock, usually in DMSO, is diluted into the medium.

On to `CCn1cc(C(=O)O)c(=O)c2c(N)c(F)c(NC3CCCCC3)cc21` [AS1842856], for which the “Human microglial cytotoxicity at 10 μM (<70% control)” value in data set [1] (10 μM, HMC3) is reported as “Y (The compound was found to be cytotoxic (cell count threshold: <70% control) when human immortalized microglial cells were dosed at 10 μM (Y: yes))”. In data set [2] (10 μM, HMC3), the “Inhibition of human microglial phagocytosis at 10 μM (<70% control)” value was “Y (The compound was found to inhibit phagocytosis (response threshold: <70% control) when human immortalized microglial cells were dosed at 10 μM (Y: yes))”. In data set [3], this compound had a kinetic solubility of 6.5 µM (≈ 2.26 µg/mL).

`C[C@H](NC(=O)c1sccc1OCc1ccc(Cl)cc1)c1ccccc1` [AS1949490]: the “Inhibition of human microglial phagocytosis at 10 μM (<70% control)” value in data set [2] (10 μM, HMC3) is “Y (The compound was found to inhibit phagocytosis (response threshold: <70% control) when human immortalized microglial cells were dosed at 10 μM (Y: yes))”. In data set [3], this compound had a kinetic solubility below 2.1 µM.

In the case of `CCCC[C@@H](C=O)NC(=O)[C@H](CC(C)C)NC(=O)OCc1ccccc1` [Calpeptin], in data set [4] (BV2, 10 μM), the “Stimulation of mouse microglial phagocytosis at 10 μM (>150% control)” value is “Y (The compound was found to stimulate phagocytosis (response threshold: >150% control) when murine immortalized microglial cells were dosed at 10 μM (Y: yes))”. For the same compound, the “Inhibition of human microglial phagocytosis at 10 μM (<70% control)” value in data set [2] (HMC3, 10 μM) is “Y (The compound was found to inhibit phagocytosis (response threshold: <70% control) when human immortalized microglial cells were dosed at 10 μM (Y: yes))”. This compound returned a kinetic solubility in data set [3] of 170 µM (≈ 61.4 µg/mL).

With `CCS(=O)(=O)N1CCN(c2ccc(Nc3ncc(C(N)=O)c(NC4CC4)n3)cc2)CC1` [Cerdulatinib], the “Mouse microglial cytotoxicity at 10 μM (<70% control)” value in data set [5] (BV2, 10 μM, cell count <70% control) is reported as “Y (The compound was found to be cytotoxic (cell count threshold: <70% control) when murine immortalized microglial cells were dosed at 10 μM (Y: yes))”. Besides, the “Human microglial cytotoxicity at 10 μM (<70% control)” value in data set [1] (HMC3, 10 μM, cell count <70% control) was “Y (The compound was found to be cytotoxic (cell count threshold: <70% control) when human immortalized microglial cells were dosed at 10 μM (Y: yes))”. Further, the “Inhibition of mouse microglial phagocytosis at 10 μM (<70% control)” value in data set [4] (BV2, 10 μM) is “Y (The compound was found to inhibit phagocytosis (response threshold: <70% control) when murine immortalized microglial cells were dosed at 10 μM (Y: yes))”. Further, the kinetic solubility in data set [3] came to 1.8 µM (≈ 0.802 µg/mL).

Turning to `C[C@@H](Oc1cc(-c2cnn(C3CCNCC3)c2)cnc1N)c1c(Cl)ccc(F)c1Cl` [Crizotinib], the “Inhibition of mouse microglial phagocytosis at 10 μM (<70% control)” value in data set [4] (BV2, 10 μM) is listed as “Y (The compound was found to inhibit phagocytosis (response threshold: <70% control) when murine immortalized microglial cells were dosed at 10 μM (Y: yes))”. Further, the “Inhibition of human microglial phagocytosis at 10 μM (<70% control)” value in data set [2] (HMC3, 10 μM) was “Y (The compound was found to inhibit phagocytosis (response threshold: <70% control) when human immortalized microglial cells were dosed at 10 μM (Y: yes))”. Moreover, the kinetic solubility in data set [3] came out at 160 µM (≈ 72.1 µg/mL).

`CCN(CC)c1ccc(/C=N/NC(=O)c2ccc(O)cc2)cc1` [DY131]: the “Mouse microglial cytotoxicity at 10 μM (<70% control)” value in data set [5] (BV2, 10 μM) is “Y (The compound was found to be cytotoxic (cell count threshold: <70% control) when murine immortalized microglial cells were dosed at 10 μM (Y: yes))”. The “Inhibition of human microglial phagocytosis at 10 μM (<70% control)” value in data set [2] (HMC3, 10 μM) is “Y (The compound was found to inhibit phagocytosis (response threshold: <70% control) when human immortalized microglial cells were dosed at 10 μM (Y: yes))”. In data set [3], this compound showed a kinetic solubility of 4.5 µM (≈ 1.4 µg/mL).

In the case of `CNc1nc(C)nc(N[C@H]2CCC[C@@H](C(=O)NCc3ccc(C#N)cc3C(F)(F)F)C2)n1` [GSK2256294A], the “Inhibition of human microglial phagocytosis at 10 μM (<70% control)” value in data set [2] (HMC3, 10 μM) was “Y (The compound was found to inhibit phagocytosis (response threshold: <70% control) when human immortalized microglial cells were dosed at 10 μM (Y: yes))”. The same compound came in with a solubility (kinetic) in data set [3] of 148 µM (≈ 66 µg/mL).

In the case of `CN(C)CCCn1c(N)c(-c2nc3ccccc3[nH]2)c2nc3ccccc3nc21` [INI-43], the “Inhibition of human microglial phagocytosis at 10 μM (<70% control)” value in data set [2] (10 μM, HMC3) was “Y (The compound was found to inhibit phagocytosis (response threshold: <70% control) when human immortalized microglial cells were dosed at 10 μM (Y: yes))”. The compound also returned a solubility (kinetic) in data set [3] of 5.9 µM (≈ 2.27 µg/mL).

Regarding `CC(Nc1nc(N2CCCC2)nc2ccccc12)c1ccccc1` (stereo not drawn) [Importazole], in data set [5] (10 μM, BV2), the “Mouse microglial cytotoxicity at 10 μM (<70% control)” value is reported as “Y (The compound was found to be cytotoxic (cell count threshold: <70% control) when murine immortalized microglial cells were dosed at 10 μM (Y: yes))”. Besides, in data set [1] (10 μM, HMC3), the “Human microglial cytotoxicity at 10 μM (<70% control)” value is given as “Y (The compound was found to be cytotoxic (cell count threshold: <70% control) when human immortalized microglial cells were dosed at 10 μM (Y: yes))”. Besides, the “Inhibition of human microglial phagocytosis at 10 μM (<70% control)” value in data set [2] (10 μM, HMC3) was “Y (The compound was found to inhibit phagocytosis (response threshold: <70% control) when human immortalized microglial cells were dosed at 10 μM (Y: yes))”. The same compound had a kinetic solubility in data set [3] of 42.1 µM (≈ 13.4 µg/mL).

For the compound `c1ccc(-c2nn3c(c2-c2ccnc4cc(OCCN5CCOCC5)ccc24)CCC3)nc1` [LY2109761], the “Inhibition of human microglial phagocytosis at 10 μM (<70% control)” value in data set [2] (HMC3, 10 μM) is “Y (The compound was found to inhibit phagocytosis (response threshold: <70% control) when human immortalized microglial cells were dosed at 10 μM (Y: yes))”. Moreover, the solubility (kinetic) in data set [3] came out at 114 µM (≈ 50.6 µg/mL).

Turning to `C[C@H]1Oc2cc(cnc2N)-c2c(nn(C)c2C#N)CN(C)C(=O)c2ccc(F)cc21` [Lorlatinib], in data set [4] (BV2, 10 μM), the “Stimulation of mouse microglial phagocytosis at 10 μM (>150% control)” value is on record as “Y (The compound was found to stimulate phagocytosis (response threshold: >150% control) when murine immortalized microglial cells were dosed at 10 μM (Y: yes))”. Besides, the “Inhibition of human microglial phagocytosis at 10 μM (<70% control)” value in data set [2] (HMC3, 10 μM) is reported as “Y (The compound was found to inhibit phagocytosis (response threshold: <70% control) when human immortalized microglial cells were dosed at 10 μM (Y: yes))”. The compound further displayed a solubility (kinetic) in data set [3] of 172 µM (≈ 69.9 µg/mL).

As to `OC(c1cc(C23CC4CC(CC(C4)C2)C3)nc2c(Cl)cc(Cl)cc12)C1CCCCN1` (stereo not drawn) [NSC305787], the “Mouse microglial cytotoxicity at 10 μM (<70% control)” value in data set [5] (BV2, 10 μM) was “Y (The compound was found to be cytotoxic (cell count threshold: <70% control) when murine immortalized microglial cells were dosed at 10 μM (Y: yes))”. In addition, in data set [2] (HMC3, 10 μM), the “Inhibition of human microglial phagocytosis at 10 μM (<70% control)” value is “Y (The compound was found to inhibit phagocytosis (response threshold: <70% control) when human immortalized microglial cells were dosed at 10 μM (Y: yes))”. This compound displayed a solubility (kinetic) in data set [3] below 1.1 µM.

Turning to `Oc1cc(CNC(=S)/C=C/c2cc(O)c(O)c(Br)c2)cc(O)c1O` [NT157], the “Mouse microglial cytotoxicity at 10 μM (<70% control)” value in data set [5] (10 μM, BV2) is reported as “Y (The compound was found to be cytotoxic (cell count threshold: <70% control) when murine immortalized microglial cells were dosed at 10 μM (Y: yes))”. The “Human microglial cytotoxicity at 10 μM (<70% control)” value in data set [1] (10 μM, HMC3) is given as “Y (The compound was found to be cytotoxic (cell count threshold: <70% control) when human immortalized microglial cells were dosed at 10 μM (Y: yes))”. In data set [4] (10 μM, BV2), the “Stimulation of mouse microglial phagocytosis at 10 μM (>150% control)” value is on record as “Y (The compound was found to stimulate phagocytosis (response threshold: >150% control) when murine immortalized microglial cells were dosed at 10 μM (Y: yes))”. The same compound returned a solubility (kinetic) in data set [3] of 79.7 µM (≈ 32.9 µg/mL).

Turning to `CC(C)(C)c1cnc(CSc2cnc(NC(=O)C3CCNCC3)s2)o1` [SNS-032], the “Mouse microglial cytotoxicity at 10 μM (<70% control)” value in data set [5] (BV2, 10 μM) is “Y (The compound was found to be cytotoxic (cell count threshold: <70% control) when murine immortalized microglial cells were dosed at 10 μM (Y: yes))”. Further, the “Human microglial cytotoxicity at 10 μM (<70% control)” value in data set [1] (HMC3, 10 μM) is listed as “Y (The compound was found to be cytotoxic (cell count threshold: <70% control) when human immortalized microglial cells were dosed at 10 μM (Y: yes))”. Besides, in data set [2] (HMC3, 10 μM), the “Stimulation of human microglial phagocytosis at 10 μM (>150% control)” value is “Y (The compound was found to stimulate phagocytosis (response threshold: >150% control) when human immortalized microglial cells were dosed at 10 μM (Y: yes))”. For the same compound, in data set [3], the kinetic solubility was found to be 138 µM (≈ 52.3 µg/mL).
